Measured values as given in patent US20230124862A1, “BISMUTH THIOL COMPOUNDS AND COMPOSITIONS AND METHODS OF TREATING MICROBIAL CO-INFECTIONS” (Microbion Corporation, priority 2020, published 2023).
Converted amounts (≈) assume the structure as drawn. Read-outs that look alike come from different tables or passages of the source.

Assays:
[1] = tested on: Anaerobes (Bacteroides fragilis, Clostridium difficile); details: cited from earlier work
[2] = tested on: Anaerobes (Bacteroides fragilis, Clostridium difficile); assay: Agar dilution MIC (Example 11); format: cell-based; details: read-out: MIC
Experimental: The susceptibility of anaerobic bacteria was determined by agar dilution using Brucella Agar (BD/BBL; Lot No. 5237692) supplemented with 5 μg/mL hemin (Sigma, St. Louis, Mo.; Lot No. 108K1088), 1 μg/mL Vitamin K1 and 5% (v/v) laked sheep blood (Cleveland Scientific, Bath, Ohio; Lot No. 322799).
Agar Dilution MIC Testing (Anaerobic Bacteria and Gonococci): MIC values for anaerobic bacteria were determined using a reference agar dilution method as described by CLSI (6). Organisms were grown at 35° C. in the Bactron II Anaerobic Chamber (Shel Lab, Cornelius, Oreg.) for approximately 48 hr prior to the assay. Drug dilutions and drug-supplemented agar plates were prepared manually per CLSI (6). The plates were allowed to stand at room temperature for 1 hr to allow the agar surface to dry and pre-reduced for approximately 1 hr in the anaerobe chamber prior to inoculation. Each isolate was suspended to the equivalent of a 0.5 McFarland standard in Brucella broth using a turbidity meter (Dade Behring MicroScan, West Sacramento, Calif.). Each bacterial cell suspension was then diluted 1:10 in Brucella broth and transferred to wells in a stainless steel replicator block which was used to inoculate the test plates. The prongs on the replicator deliver approximately 1-2 μl of inoculum to an agar surface. The resulting inoculum spots contained approximately 1×10^5 CFU/spot. After the inoculum dried, the inoculated drug-supplemented agar plates and no drug growth control plates were incubated at 35° C. for 42-48 hr in the anaerobe chamber. The MIC was read per CLSI guidelines (6).

Candida krusei [3] = details: C. krusei ATCC 6258, CLSI established QC range, cited from earlier work
E. coli ATCC 25922 = assay: MIC control strain; details: QC organism, Example 13
Aspergillus spp. [4] = assay: Antifungal broth microdilution (Example 13); format: cell-based, A. niger, A. terreus, A. fumigatus, A. flavus
Candida spp. [5] = assay: Broth microdilution MIC (Example 11); format: cell-based, C. parapsilosis, C. albicans, C. glabrata, C. tropicalis
S. aureus ATCC 29213 = assay: MIC control strain; details: QC organism, Example 13
Aspergillus spp. [6] = details: cited from earlier work
[7] = tested on: C. parapsilosis ATCC 22019; details: C. parapsilosis ATCC 22019, CLSI established QC range, cited from earlier work
Candida spp. [8] = details: C. parapsilosis MMX 2323 (ATCC 22019), cited from earlier work
Candida krusei [9] = assay: Antifungal broth microdilution (Example 13); format: cell-based; details: C. krusei ATCC 6258, comparators, single value
[10] = tested on: C. parapsilosis ATCC 22019; assay: Antifungal broth microdilution (Example 13), QC organism; format: cell-based, Candida parapsilosis; details: comparators, single value
[11] = tested on: Gram-positive organisms (S. aureus, S. pneumoniae); assay: Broth microdilution MIC with pulmonary surfactant (Survanta); format: cell-based, Staphylococcus aureus, Streptococcus pneumoniae
[12] = tested on: Gram-positive organisms (S. aureus, S. pneumoniae); details: cited from earlier work
[13] = C. difficile MMX 4381 (ATCC 700057)
[14] = Bacteroides fragilis, ATCC25285, B. fragilis MMX 123 (ATCC 25285), QC
[15] = C. difficile MMX 4381 (ATCC 700057), QC, CC^1
[16] = C. difficile MMX 5680 (NCTC 13336), ribotype 027, CC^1 MET^R
[17] = C. difficile MMX 5681 (NCTC 13307), ribotype 012, CC^R
[18] = C. difficile MMX 8272, ribotype 255, CC^1
[19] = C. difficile MMX 8279, ribotype 005, CC^R
[20] = C. difficile MMX 8281, ribotype 010, CC^R

CCc1c(Cl)c(O)c(Cl)c(O)c1C(=O)O[C@H]1[C@H](O)[C@H](OC)[C@H](OC/C2=C\C=C\C[C@H](O)/C(C)=C/[C@H](CC)[C@@H](O[C@@H]3OC(C)(C)[C@@H](OC(=O)C(C)C)[C@H](O)[C@@H]3O)/C(C)=C/C(C)=C/C[C@@H]([C@@H](C)O)OC2=O)O[C@@H]1C [Fidaxomicin]
CLSI QC range of MIC [1, 13]: (0.06-0.25) μg/mL | MIC [2, 14]: > 64 µg/mL | MIC [2, 15]: 0.25 µg/mL (≈ 0.236 µM) | MIC [2, 16]: 4 µg/mL (≈ 3.78 µM) | MIC [2, 17]: 0.5 µg/mL (≈ 0.473 µM) | MIC [2, 18]: 0.5 µg/mL (≈ 0.473 µM) | MIC [2, 19]: 0.5 µg/mL (≈ 0.473 µM) | MIC [2, 20]: 0.5 µg/mL (≈ 0.473 µM)

Cc1ncc([N+](=O)[O-])n1CCO [Metronidazole]
CLSI QC range of MIC ([1]; B. fragilis MMX 123 (ATCC 25285)): (0.25-1) μg/mL | CLSI QC range of MIC [1, 13]: (0.12-0.5) μg/mL | MIC [2, 14]: 0.5 µg/mL (≈ 2.92 µM) | MIC [2, 15]: 0.5 µg/mL (≈ 2.92 µM) | MIC [2, 16]: > 64 µg/mL | MIC [2, 17]: 0.5 µg/mL (≈ 2.92 µM) | MIC [2, 18]: 0.5 µg/mL (≈ 2.92 µM) | MIC [2, 19]: 0.5 µg/mL (≈ 2.92 µM) | MIC [2, 20]: 8 µg/mL (≈ 46.7 µM)

C[C@@H]1[C@H](O)[C@@H](C)/C=C/C=C/C=C/C=C/C=C/C=C/C=C/[C@H](O[C@@H]2O[C@H](C)[C@@H](O)[C@H](N)[C@@H]2O)C[C@@H]2O[C@](O)(C[C@@H](O)C[C@@H](O)[C@H](O)CC[C@@H](O)C[C@@H](O)CC(=O)O[C@H]1C)C[C@H](O)[C@H]2C(=O)O [Amphotericin B]
QC Range 24 hr (Candida krusei [3]; 24 hr): 0.5-2 | QC Range 48 hr (Candida krusei [3]; 48 hr): 1-4 | MIC 24 hr (E. coli ATCC 25922): >64 | MIC 24 hr (Aspergillus spp. [4]; A. flavus ATCC 204304): 0.5 µg/mL (≈ 0.541 µM) | MIC 48 hr (Aspergillus spp. [4]; A. flavus ATCC 204304): 1 µg/mL (≈ 1.08 µM) | MIC 24 hr (Aspergillus spp. [4]; A. fumigatus ATCC MYA-3626): 0.5 µg/mL (≈ 0.541 µM) | MIC 48 hr (Aspergillus spp. [4]; A. fumigatus ATCC MYA-3626): 1 µg/mL (≈ 1.08 µM) | MIC (Candida spp. [5]; C. albicans MMX 7039, Sensitive, incubation 24 hr): 0.5, 0.5 μg/mL | MIC (Candida spp. [5]; C. albicans MMX 7039, Sensitive, incubation 48 hr): 0.5, 0.5 μg/mL | MIC (Candida spp. [5]; C. albicans MMX 7055, Sensitive, incubation 24 hr): 0.25 µg/mL (≈ 0.271 µM) | MIC (Candida spp. [5]; C. albicans MMX 7055, Sensitive, incubation 48 hr): 0.5 µg/mL (≈ 0.541 µM) | MIC (Candida spp. [5]; C. glabrata MMX 7318, FLU^R, incubation 24 hr): 0.5 µg/mL (≈ 0.541 µM) | MIC (Candida spp. [5]; C. glabrata MMX 7318, FLU^R, incubation 48 hr): 1 µg/mL (≈ 1.08 µM) | MIC (Candida spp. [5]; C. glabrata miX 7086, FLU^R, incubation 24 hr): 0.5 µg/mL (≈ 0.541 µM) | MIC (Candida spp. [5]; C. glabrata miX 7086, FLU^R, incubation 48 hr): 1 µg/mL (≈ 1.08 µM) | MIC (Candida spp. [5]; C. parapsilosis MMX 2323 (ATCC 22019), QC, incubation 24 hr): 0.5 µg/mL (≈ 0.541 µM) | MIC (Candida spp. [5]; C. parapsilosis MMX 2323 (ATCC 22019), QC, incubation 48 hr): 1 µg/mL (≈ 1.08 µM) | MIC (Candida spp. [5]; C. parapsilosis MMX 7370, FLU^R, incubation 24 hr): 0.5 µg/mL (≈ 0.541 µM) | MIC (Candida spp. [5]; C. parapsilosis MMX 7370, FLU^R, incubation 48 hr): 1 µg/mL (≈ 1.08 µM) | MIC (Candida spp. [5]; C. parapsilosis MMX 7555, FLU^R, incubation 24 hr): 0.5, 0.5 μg/mL | MIC (Candida spp. [5]; C. parapsilosis MMX 7555, FLU^R, incubation 48 hr): 0.5, 0.5 μg/mL | MIC (Candida spp. [5]; C. tropicalis MMX 7247, FLU^R, incubation 24 hr): 0.5 µg/mL (≈ 0.541 µM) | MIC (Candida spp. [5]; C. tropicalis MMX 7247, FLU^R, incubation 48 hr): 1 µg/mL (≈ 1.08 µM) | MIC (Candida spp. [5]; C. tropicalis MMX 7248, FLU^R, incubation 24 hr): 0.5 µg/mL (≈ 0.541 µM) | MIC (Candida spp. [5]; C. tropicalis MMX 7248, FLU^R, incubation 48 hr): 1 µg/mL (≈ 1.08 µM) | MIC (Candida spp. [5]; C. tropicalis MMX 7360, FLU^R, incubation 24 hr): 0.5, 0.5 μg/mL | MIC (Candida spp. [5]; C. tropicalis MMX 7360, FLU^R, incubation 48 hr): 0.5, 0.5 μg/mL | MIC 24 hr (S. aureus ATCC 29213): >64 | QC Range 48 hr (Aspergillus spp. [6]; A. flavus ATCC 204304, CLSI established QC range): 0.5-4 | QC Range 48 hr (Aspergillus spp. [6]; A. fumigatus ATCC MYA-3626, CLSI established QC range): 0.5-4 | QC Range 24 hr ([7]; 24 hr): 0.25-2 | QC Range 48 hr ([7]; 48 hr): 0.5-4 | CLSI QC range of MIC (Candida spp. [8]; 24 hr): 0.25 to 2 µg/mL | CLSI QC range of MIC (Candida spp. [8]; 48 hr): 0.5 to 4 µg/mL | MIC 24 hr (Candida krusei [9]; 24 hr): 0.5 µg/mL (≈ 0.541 µM) | MIC 48 hr (Candida krusei [9]; 48 hr): 0.5 µg/mL (≈ 0.541 µM) | MIC 24 hr ([10]; 24 hr): 0.5 µg/mL (≈ 0.541 µM) | MIC 48 hr ([10]; 48 hr): 0.5 µg/mL (≈ 0.541 µM)

CCCCCCCCCC(=O)N[C@@H](Cc1c[nH]c2ccccc12)C(=O)N[C@H](CC(N)=O)C(=O)N[C@@H](CC(=O)O)C(=O)N[C@@H]1C(=O)NCC(=O)N[C@@H](CCCN)C(=O)N[C@@H](CC(=O)O)C(=O)N[C@H](C)C(=O)N[C@@H](CC(=O)O)C(=O)NCC(=O)N[C@H](CO)C(=O)N[C@@H]([C@H](C)CC(=O)O)C(=O)N[C@@H](CC(=O)c2ccccc2N)C(=O)O[C@@H]1C [daptomycin]
effect of Survanta addition on MIC values ([11]; S. aureus and S. pneumoniae): increased | MIC ([11]; S. pneumoniae ATCC 49619, 0 percent Survanta): 0.06 µg/mL (≈ 0.037 µM) | MIC ([11]; S. pneumoniae ATCC 49619, 1 percent Survanta): 0.25 µg/mL (≈ 0.154 µM) | MIC ([11]; S. pneumoniae ATCC 49619, 2.5 percent Survanta): 1 µg/mL (≈ 0.617 µM) | MIC ([11]; S. pneumoniae MMX 3162, 0 percent Survanta): 0.12 µg/mL (≈ 0.074 µM) | MIC ([11]; S. pneumoniae MMX 3162, 1 percent Survanta): 0.25 µg/mL (≈ 0.154 µM) | MIC ([11]; S. pneumoniae MMX 3162, 2.5 percent Survanta): 0.25 µg/mL (≈ 0.154 µM) | MIC ([11]; Staphylococcus aureus, ATCC29213, S. aureus ATCC 29213, 0 percent Survanta): 0.5 µg/mL (≈ 0.309 µM) | MIC ([11]; Staphylococcus aureus, ATCC29213, S. aureus ATCC 29213, 1 percent Survanta): 16 µg/mL (≈ 9.87 µM) | MIC ([11]; Staphylococcus aureus, ATCC29213, S. aureus ATCC 29213, 2.5 percent Survanta): 32 µg/mL (≈ 19.7 µM) | MIC ([11]; Staphylococcus aureus, ATCC29213, S. aureus ATCC 29213, 5 percent Survanta): > 32 µg/mL | MIC ([11]; Staphylococcus aureus, ATCC29213, S. aureus ATCC 29213, 10 percent Survanta): > 32 µg/mL | MIC ([11]; Staphylococcus aureus, ATCC43300, S. aureus ATCC 43300, 0 percent Survanta): 0.25 µg/mL (≈ 0.154 µM) | MIC ([11]; Staphylococcus aureus, ATCC43300, S. aureus ATCC 43300, 1 percent Survanta): 8 µg/mL (≈ 4.94 µM) | MIC ([11]; Staphylococcus aureus, ATCC43300, S. aureus ATCC 43300, 2.5 percent Survanta): 16 µg/mL (≈ 9.87 µM) | MIC ([11]; Staphylococcus aureus, ATCC43300, S. aureus ATCC 43300, 5 percent Survanta): 16 µg/mL (≈ 9.87 µM) | MIC ([11]; Staphylococcus aureus, ATCC43300, S. aureus ATCC 43300, 10 percent Survanta): > 32 µg/mL | CLSI acceptable MIC QC range ([12]; S. aureus ATCC 29213): (0.12-1) μg/mL | CLSI acceptable MIC QC range ([12]; S. pneumoniae ATCC 49619): (0.06-0.5) μg/mL
